Among the data in patent publication US20100168102A9, “Amide Derivatives as Kinase Inhibitors” (Devgen NV, priority 2005, published 2010) are IC50 values, retold here.

By IC50 is commonly meant the concentration that gives 50% inhibition.

Where two headings read alike, the source gives them in different places. A value given as a limit tells only on which side of the number the result lay.

In one test the target is T1, PKC epsilon (Homo sapiens, UniProt Q02156).
T1 construct: purchased Invitrogen P2282
T1 sequence (Q02156 1-737): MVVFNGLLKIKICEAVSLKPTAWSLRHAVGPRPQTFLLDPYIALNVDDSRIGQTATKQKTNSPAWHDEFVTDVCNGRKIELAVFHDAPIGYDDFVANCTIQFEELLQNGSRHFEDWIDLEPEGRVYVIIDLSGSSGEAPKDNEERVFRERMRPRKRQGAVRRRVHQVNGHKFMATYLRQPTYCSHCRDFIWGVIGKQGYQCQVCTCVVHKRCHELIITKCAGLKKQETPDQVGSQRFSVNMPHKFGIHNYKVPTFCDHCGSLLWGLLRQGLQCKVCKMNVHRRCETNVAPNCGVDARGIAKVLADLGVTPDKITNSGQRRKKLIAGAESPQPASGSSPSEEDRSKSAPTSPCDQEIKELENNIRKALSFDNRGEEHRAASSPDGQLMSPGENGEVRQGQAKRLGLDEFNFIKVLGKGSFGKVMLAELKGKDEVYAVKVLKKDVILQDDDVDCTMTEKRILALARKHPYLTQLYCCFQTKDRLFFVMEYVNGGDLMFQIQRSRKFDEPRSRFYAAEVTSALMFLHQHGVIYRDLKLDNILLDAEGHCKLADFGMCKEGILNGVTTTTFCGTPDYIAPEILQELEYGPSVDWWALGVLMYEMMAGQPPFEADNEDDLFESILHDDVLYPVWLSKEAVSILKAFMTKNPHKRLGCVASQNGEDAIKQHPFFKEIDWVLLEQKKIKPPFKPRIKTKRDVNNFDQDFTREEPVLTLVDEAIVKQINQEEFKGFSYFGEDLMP
The test can be described thus: Biochemical assay for PKC epsilon (fluorescence polarization, Protein Kinase C Assay Kit, Red). Conditions: read-out: IC50 μM PKCε. Summed up: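 PKC epsilon at 10 ng/ml final was preincubated 30 min at room temperature with compound in HEPES pH 7.4 with DTT and Triton X-100. ATP/protein substrate was then added in buffer with MgCl2 and CaCl2 for 80 min. The reaction was stopped with EDTA, phosphorylation was detected by fluorescence polarization with rhodamine tracer and anti-phosphoserine antibody, and IC50 values came from curve fits.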

For another test, the target named is T2, human ROCKα/ROCKII mix (Homo sapiens, UniProt O75116).
T2 construct: purchased Upstate Biotechnology 14-451
T2 sequence (O75116 11-552 limits assumed): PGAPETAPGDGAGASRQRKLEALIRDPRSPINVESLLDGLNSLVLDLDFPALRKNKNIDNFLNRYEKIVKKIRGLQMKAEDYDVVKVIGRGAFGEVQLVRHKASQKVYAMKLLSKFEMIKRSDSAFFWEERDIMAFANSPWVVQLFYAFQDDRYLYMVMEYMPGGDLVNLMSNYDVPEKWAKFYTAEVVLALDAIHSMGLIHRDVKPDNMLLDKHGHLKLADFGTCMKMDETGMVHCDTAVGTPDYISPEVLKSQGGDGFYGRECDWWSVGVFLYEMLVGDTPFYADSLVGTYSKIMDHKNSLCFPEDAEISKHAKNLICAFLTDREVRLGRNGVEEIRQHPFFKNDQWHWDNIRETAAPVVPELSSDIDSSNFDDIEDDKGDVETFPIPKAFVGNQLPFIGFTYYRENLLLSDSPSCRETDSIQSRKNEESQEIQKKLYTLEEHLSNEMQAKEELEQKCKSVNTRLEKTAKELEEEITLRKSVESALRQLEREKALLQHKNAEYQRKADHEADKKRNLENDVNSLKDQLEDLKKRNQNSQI
The test can be described thus: Biochemical assay for ROCK (fluorescence polarization, ROCK IMAP Kit). Background: In fluorescence polarisation assays a small probe gives low polarisation when free and higher when bound to something large.

[1] abbreviates: compounds of Formula XIV, Table 3.
[2] abbreviates: Table 2, compounds of Formula XIII.

With “4-[1-Amino-2- (benzo[1,3]dioxol-5-yl- ethylcarbamoyl)-ethyl]-N- pyridin-4-yl-benzamide [Compound 296]”, the IC50 was in the range of 5 to 50 µM on PKC epsilon (setting [1]) and 0.05 to 0.5 µM on human ROCKα/ROCKII mix (setting [1]).

On to `Cc1cccc(CNC(=O)CC(N)c2ccc(C(=O)Nc3ccncc3)cc2)c1` (stereo not drawn) [Compound 232, 4-[1-Amino-2-(3-methyl-benzylcarbamoyl)-ethyl]-N-pyridin-4-yl-benzamide], for which the IC50 on PKC epsilon (setting [1]) was in the range of 0.5 to 5 µM; against human ROCKα/ROCKII mix (setting [1]), 0.05 to 0.5 µM.

For the compound `N#CCC(=O)NCC(N)c1ccc(C(=O)Nc2ccncc2)cc1` (stereo not drawn) [Compound 54, 4-[1-Amino-2-(2-cyano-acetylamino)-ethyl]-N-pyridin-4-yl-benzamide], the figures for the IC50 at PKC epsilon (setting [2]) and at human ROCKα/ROCKII mix (setting [2]) were 0.5 to 5 µM and 0.05 to 0.5 µM, respectively.

For `Cc1ccc(C)c(CNC(=O)CC(N)c2ccc(C(=O)Nc3ccncc3)cc2)c1` (stereo not drawn) [Compound 234, 4-[1-Amino-2-(2,5-dimethyl-benzylcarbamoyl)-ethyl]-N-pyridin-4-yl-benzamide], the values for the IC50 at PKC epsilon (setting [1]) and against human ROCKα/ROCKII mix (setting [1]) were 0.5 to 5 µM and 0.05 to 0.5 µM, respectively.

For the compound `NC(CNC(=O)COc1ccc(F)cc1)c1ccc(C(=O)Nc2ccncc2)cc1` (stereo not drawn) [Compound 157, 4-{1-Amino-2-[2-(4-fluoro-phenoxy)-acetylamino]-ethyl}-N-pyridin-4-yl-benzamide], the IC50 on PKC epsilon (setting [2]) and on human ROCKα/ROCKII mix (setting [2]) was 0.05 to 0.5 µM throughout.

With `COc1ccccc1C(=O)NCC(N)c1ccc(C(=O)Nc2ccncc2)cc1` (stereo not drawn) [Compound 72, 4-[1-amino-2-(2-methoxy-benzoylamino)-ethyl]-N-pyridin-4-yl-benzamide], the IC50 at PKC epsilon (setting [2]) and against human ROCKα/ROCKII mix (setting [2]) was 0.5 to 5 µM each time.

With `Cc1cc(Cl)ccc1OC(C)C(=O)NCC(N)c1ccc(C(=O)Nc2ccncc2)cc1` (stereo not drawn) [Compound 159, 4-{1-Amino-2-[2-(4-chloro-2-methyl-phenoxy)-propionylamino]-ethyl}-N-pyridin-4-yl-benzamide], the IC50 on PKC epsilon (setting [2]) lay within 0.5 to 5 µM; at human ROCKα/ROCKII mix (setting [2]), 0.05 to 0.5 µM.

For the compound “4-[1-Amino-2-(4-thiophen-2- yl-benzylcarbamoyl)-ethyl]- N-pyridin-4-yl-benzamide [Compound 235]”, the results for the IC50 on PKC epsilon (setting [1]) and against human ROCKα/ROCKII mix (setting [1]) were 5 to 50 µM and 0.05 to 0.5 µM, respectively.

In the case of `CC(C)(C(=O)NCC(N)c1ccc(C(=O)Nc2ccncc2)cc1)c1ccc(Cl)cc1F` (stereo not drawn) [Compound 388, 4-{1-Amino-2-[2-(4-chloro-2-fluoro-phenyl)-2-methyl-propionylamino]-ethyl}-N-pyridin-4-yl-benzamide], the IC50 at PKC epsilon (setting [2]) is below 0.05 µM; at human ROCKα/ROCKII mix (setting [2]), 0.05 to 0.5 µM.

In the case of `NC(CNC(=O)CC1Cc2ccccc2C1)c1ccc(C(=O)Nc2ccncc2)cc1` (stereo not drawn) [Compound 49, 4-[1-Amino-2-(2-indan-2-yl-acetylamino)-ethyl]-N-pyridin-4-yl-benzamide], the IC50 on PKC epsilon (setting [2]) is 0.5 to 5 µM; on human ROCKα/ROCKII mix (setting [2]), 0.05 to 0.5 µM.

Turning to `COc1ccccc1CC(=O)N(C)CC(N)c1ccc(C(=O)Nc2ccncc2)cc1` (stereo not drawn) [Compound 425, 4-(1-Amino-2-{[2-(2-methoxy-phenyl)-acetyl]-methyl-amino}-ethyl)-N-pyridin-4-yl-benzamide], the IC50 lay within 5 to 50 µM on PKC epsilon and 0.5 to 5 µM against human ROCKα/ROCKII mix.

For the compound `NC(c1ccc(C(=O)Nc2ccncc2)cc1)C1CCCN1C(=O)C1(c2ccc(Cl)cc2)CC1` (stereo not drawn) [Compound 564, 4-(Amino-{1-[1-(4-chloro-phenyl)-cyclopropanecarbonyl]-pyrrolidin-2-yl}-methyl)-N-pyridin-4-yl-benzamide], the IC50 at PKC epsilon and against human ROCKα/ROCKII mix was 0.5 to 5 µM each time.

For `COc1ccccc1CC(=O)N1CCCC1C(N)c1ccc(C(=O)Nc2ccncc2)cc1` (stereo not drawn) [Compound 526, 4-(Amino-{1-[2-(2-methoxy-phenyl)-acetyl]-pyrrolidin-2-yl]-methyl}-N-pyridin-4-yl-benzamide], the IC50 was in the range of 5 to 50 µM on PKC epsilon and 0.5 to 5 µM on human ROCKα/ROCKII mix.

Turning to `NC(CC(=O)NCc1ccccc1C(F)(F)F)c1ccc(C(=O)Nc2ccncc2)cc1` (stereo not drawn) [Compound 263, 4-[1-Amino-2-(2-trifluoromethyl-benzylcarbamoyl)-ethyl]-N-pyridin-4-yl-benzamide], the IC50 on PKC epsilon (setting [1]) lay in the range of 0.5 to 5 µM; at human ROCKα/ROCKII mix (setting [1]) it was 0.05 to 0.5 µM.

As for `CC(C)(C(=O)NCC(N)c1ccc(C(=O)Nc2ccncc2)cc1)c1ccc(F)cc1F` (stereo not drawn) [Compound 384, 4-{1-Amino-2-[2-(2,4-difluoro-phenyl)-2-methyl-propionylamino]-ethyl}-N-pyridin-4-yl-benzamide], the IC50 is below 0.05 µM at PKC epsilon (setting [2]) and 0.05 to 0.5 µM against human ROCKα/ROCKII mix (setting [2]).

For the compound `CC(C)(C(=O)N1CCCC1C(N)c1ccc(C(=O)Nc2ccncc2)cc1)c1ccc(F)cc1` (stereo not drawn) [Compound 573, 4-(Amino-{1-[2-(4-fluoro-phenyl)-2-methyl-propionyl]-pyrrolidin-2-yl}-methyl)-N-pyridin-4-yl-benzamide], the IC50 at PKC epsilon and at human ROCKα/ROCKII mix was 0.5 to 5 µM each time.

`CN(C)c1ccc(NC(=O)NCC(N)c2ccc(C(=O)Nc3ccncc3)cc2)cc1` (stereo not drawn) [Compound 21, 4-{1-amino-2-[3-(4-dimethylamino-phenyl)-ureido]-ethyl}-N-pyridin-4-yl-benzamide]: the values for the IC50 on PKC epsilon and at human ROCKα/ROCKII mix were 0.5 to 5 µM and 0.05 to 0.5 µM, respectively.

`COCCNC(=O)CC(N)c1ccc(C(=O)Nc2ccncc2)cc1` (stereo not drawn) [Compound 180, 4-[1-amino-2-(2-methoxy-ethylcarbamoyl)-ethyl]-N-pyridin-4-yl-benzamide]: the values for the IC50 on PKC epsilon (setting [1]) and at human ROCKα/ROCKII mix (setting [1]) were 0.5 to 5 µM and 0.05 to 0.5 µM, respectively.

On to “4-{1-Amino-2-[methyl-(1- thiophen-3-yl- cyclopropanecarbonyl)- amino]-ethyl}- N-pyridin-4-yl-benzamide [Compound 450]”, for which the IC50 at PKC epsilon fell in the range of 5 to 50 µM; against human ROCKα/ROCKII mix it was 0.5 to 5 µM.

For the compound `COCC(C)NC(=O)CC(N)c1ccc(C(=O)Nc2ccncc2)cc1` (stereo not drawn) [Compound 181, 4-[1-amino-2-(2-methoxy-1-methyl-ethylcarbamoyl)-ethyl]-N-pyridin-4-yl-benzamide], the results for the IC50 at PKC epsilon (setting [1]) and against human ROCKα/ROCKII mix (setting [1]) were 0.5 to 5 µM and 0.05 to 0.5 µM, respectively.

On to `NC(CNC(=O)C1CCOc2ccc(F)cc21)c1ccc(C(=O)Nc2ccncc2)cc1` (stereo not drawn) [Compound 393, 6-Fluoro-chroman-4-carboxylic acid {2-amino-2-[4-(pyridin-4-ylcarbamoyl)-phenyl]-ethyl}-amide], for which the IC50 at PKC epsilon (setting [2]) and against human ROCKα/ROCKII mix (setting [2]) was 0.05 to 0.5 µM throughout.

Turning to `NC(CNC(=O)c1csc(Nc2ccc(F)cc2)n1)c1ccc(C(=O)Nc2ccncc2)cc1` (stereo not drawn) [Compound 125, 2-(4-Fluoro-phenylamino)-thiazole-4-carboxylic acid {2-amino-2-[4-(pyridin-4-ylcarbamoyl)phenyl]-ethyl}-amide], the IC50 at PKC epsilon (setting [2]) and on human ROCKα/ROCKII mix (setting [2]) was 0.5 to 5 µM in each case.

Consider `CC(CNC(=O)CC(N)c1ccc(C(=O)Nc2ccncc2)cc1)c1ccccc1` (stereo not drawn) [Compound 283, 4-[1-Amino-2-(2-phenyl-propyl-carbamoyl)-ethyl]-N-pyridin-4-yl-benzamide], for which the IC50 was 0.5 to 5 µM at PKC epsilon (setting [1]) and 0.05 to 0.5 µM on human ROCKα/ROCKII mix (setting [1]).

Turning to `NC(c1ccc(C(=O)Nc2ccncc2)cc1)C1CCCN1C(=O)C1(c2ccc(F)c(F)c2)CC1` (stereo not drawn) [Compound 587, 4-(Amino-{1-[1-(3,4-difluoro-phenyl)-cyclopropanecarbonyl]-pyrrolidin-2-yl}-methyl)-N-pyridin-4-yl-benzamide], the IC50 on PKC epsilon and at human ROCKα/ROCKII mix was 0.5 to 5 µM throughout.
